Test results: US8076487B2, “Pyridone derivative and herbicide” (Kumiai Chemical Industry Co., Ltd., priority 2006, dated 2011)

Experiments:
Assay type in all cases: in vivo
[1] = system: slender amaranth (Amaranthus viridis L.); experiment: Test Example 3: herbicidal effect by application to upland field (foliage treatment); conditions: 14th day after application; for herbicidal effect (index), Slender Amaranth: foliage treatment, plants grown two weeks, 1,000 g active ingredient per hectare; for herbicidal effect, Slender Amaranth: foliage treatment, 1,000 g active ingredient per 1 hectare, greenhouse
How it was run: (§1)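 Foliar spray on two-week-old greenhouse weeds in field soil: wettable powder formulation diluted in water, applied at 1,000 L/ha to give 1,000 g a.i./ha. Damage rated by a fixed scoring standard on day 14 after application.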

[2] = system: barnyardgrass (Echinochloa crus-galli (L.) P. Beauv. var. crus-galli); experiment: as above; conditions: 14th day after application; for herbicidal effect (index), Barnyardgrass: foliage treatment, plants grown two weeks, 1,000 g active ingredient per hectare; for herbicidal effect, Barnyardgrass: foliage treatment, 1,000 g active ingredient per 1 hectare, greenhouse
How it was run: as §1

[3] = system: velvetleaf (Abutilon theophrasti medicus); experiment: as above; conditions: 14th day after application; for herbicidal effect (index), Velvetleaf: foliage treatment, plants grown two weeks, 1,000 g active ingredient per hectare; for herbicidal effect, Velvetleaf: foliage treatment, 1,000 g active ingredient per 1 hectare, greenhouse
How it was run: as §1

[4] = system: green foxtail (Setaria viridis (L.) P. Beauv.); experiment: as above; conditions: 14th day after application; for herbicidal effect (index), Green Foxtail: foliage treatment, plants grown two weeks, 1,000 g active ingredient per hectare; for herbicidal effect, Green Foxtail: foliage treatment, 1,000 g active ingredient per 1 hectare, greenhouse
How it was run: as §1

[5] = system: Japanese bulrush (Scirpus juncoides Roxb.); experiment: Test Example 1: herbicidal effect by soil application to paddy field; conditions: paddy field soil application; active ingredient 1,000 g per 1 hectare; wettable powder added dropwise to water surface the day after sowing; examined on the 21st day after application
How it was run: (§2)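 Under greenhouse conditions, seeds sown on puddled paddy soil in 100 cm2 pots under 3 cm of standing water received the test compound; injury was assessed with a standard scoring scheme three weeks (day 21) after treatment.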

[6] = system: early watergrass (Echinochloa oryzicola Vasing); experiment: as above; conditions: paddy field soil application; active ingredient 1,000 g per 1 hectare; wettable powder added dropwise to water surface the day after sowing; examined on the 21st day after application
How it was run: as §2

[7] = system: heartshape false pickerelweed (Monochoria vaginalis (Burm.f.) C.Presl); experiment: as above; conditions: paddy field soil application; active ingredient 1,000 g per 1 hectare; wettable powder added dropwise to water surface the day after sowing; examined on the 21st day after application
How it was run: as §2

[8] = system: slender amaranth (Amaranthus viridis L.); experiment: Test Example 2: herbicidal effect by soil application to upland field; conditions: soil surface spray, upland field soil, 1,000 g active ingredient per hectare, 21st day after application
How it was run: (§3)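 Soil-applied wettable powder, 1,000 g a.i./ha, sprayed after sowing onto covered field soil. Effect rated on a standard scale 21 days later in a greenhouse.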

[9] = system: barnyardgrass (Echinochloa crus-galli (L.) P. Beauv. var. crus-galli); experiment: as above; conditions: soil surface spray, upland field soil, 1,000 g active ingredient per hectare, 21st day after application
How it was run: as §3

[10] = system: velvetleaf (Abutilon theophrasti medicus); experiment: as above; conditions: soil surface spray, upland field soil, 1,000 g active ingredient per hectare, 21st day after application
How it was run: as §3

[11] = system: green foxtail (Setaria viridis (L.) P. Beauv.); experiment: as above; conditions: soil surface spray, upland field soil, 1,000 g active ingredient per hectare, 21st day after application
How it was run: as §3

| SMILES | herbicidal effect (index), Slender Amaranth [1] | herbicidal effect (index), Barnyardgrass [2] | herbicidal effect (index), Velvetleaf [3] | herbicidal effect (index), Green Foxtail [4] | herbicidal effect, Scirpus juncoides Roxb. [5] | herbicidal effect, Echinochloa oryzicola Vasing [6] | herbicidal effect, Monochoria vaginalis (Burm. f.) C. Presl [7] | herbicidal effect (index), Slender Amaranth [8] | herbicidal effect (index), Barnyardgrass [9] | herbicidal effect (index), Velvetleaf [10] | herbicidal effect (index), Green Foxtail [11] | herbicidal effect, Slender Amaranth [1] | herbicidal effect, Barnyardgrass [2] | herbicidal effect, Velvetleaf [3] | herbicidal effect, Green Foxtail [4] |
| --- | --- | --- | --- | --- | --- | --- | --- | --- | --- | --- | --- | --- | --- | --- | --- |
| C=CCSCn1c(C(F)(F)F)ccc(C(=O)C2=C(O)CCCC2=O)c1=O [I-63] | 5 (90% or more of herbicidal effect and crop phytotoxicity) | 5 (90% or more of herbicidal effect and crop phytotoxicity) | 5 (90% or more of herbicidal effect and crop phytotoxicity) | 5 (90% or more of herbicidal effect and crop phytotoxicity) | 5 (90% or more of herbicidal effect and crop phytotoxicity) | 5 (90% or more of herbicidal effect and crop phytotoxicity) | 5 (90% or more of herbicidal effect and crop phytotoxicity) | 5 (90% or more of herbicidal effect and crop phytotoxicity) | 5 (90% or more of herbicidal effect and crop phytotoxicity) | 5 (90% or more of herbicidal effect and crop phytotoxicity) | 4 (70 to less than 90% of herbicidal effect and crop phytotoxicity) |  |  |  |  |
| CSCn1c(C(F)(F)F)ccc(C(=O)C2=C(O)CCCC2=O)c1=O [I-46] | 5 (90% or more of herbicidal effect and crop phytotoxicity) | 5 (90% or more of herbicidal effect and crop phytotoxicity) | 5 (90% or more of herbicidal effect and crop phytotoxicity) | 3 (50 to less than 70% of herbicidal effect and crop phytotoxicity) | 5 (90% or more of herbicidal effect and crop phytotoxicity) | 5 (90% or more of herbicidal effect and crop phytotoxicity) | 5 (90% or more of herbicidal effect and crop phytotoxicity) | 5 (90% or more of herbicidal effect and crop phytotoxicity) | 5 (90% or more of herbicidal effect and crop phytotoxicity) | 5 (90% or more of herbicidal effect and crop phytotoxicity) | 3 (50 to less than 70% of herbicidal effect and crop phytotoxicity) |  |  |  |  |
| O=C1CCCC(O)=C1C(=O)c1ccc(C(F)(F)F)n(-c2cc([N+](=O)[O-])ccc2F)c1=O [I-107] | 5 (90% or more of herbicidal effect and crop phytotoxicity) | 5 (90% or more of herbicidal effect and crop phytotoxicity) | 5 (90% or more of herbicidal effect and crop phytotoxicity) | 3 (50 to less than 70% of herbicidal effect and crop phytotoxicity) | 5 (90% or more of herbicidal effect and crop phytotoxicity) | 5 (90% or more of herbicidal effect and crop phytotoxicity) | 5 (90% or more of herbicidal effect and crop phytotoxicity) | 5 (90% or more of herbicidal effect and crop phytotoxicity) | 5 (90% or more of herbicidal effect and crop phytotoxicity) | 5 (90% or more of herbicidal effect and crop phytotoxicity) | 5 (90% or more of herbicidal effect and crop phytotoxicity) |  |  |  |  |
| CCCS(=O)(=O)Oc1c(C(=O)c2ccc(C(F)(F)F)n(C(C)COC)c2=O)cnn1C (stereo not shown) [IV-37] |  |  |  |  | 5 (90% or more of herbicidal effect and crop phytotoxicity) | 5 (90% or more of herbicidal effect and crop phytotoxicity) | 5 (90% or more of herbicidal effect and crop phytotoxicity) | 5 (90% or more of herbicidal effect and crop phytotoxicity) | 5 (90% or more of herbicidal effect and crop phytotoxicity) | 5 (90% or more of herbicidal effect and crop phytotoxicity) | 5 (90% or more of herbicidal effect and crop phytotoxicity) | 5 (90% or more of herbicidal effect and crop phytotoxicity) | 5 (90% or more of herbicidal effect and crop phytotoxicity) | 5 (90% or more of herbicidal effect and crop phytotoxicity) | 3 (50 to less than 70% of herbicidal effect and crop phytotoxicity) |
| CN(C)n1c(C(F)(F)F)ccc(C(=O)C2=C(O)CCCC2=O)c1=O [I-171] |  |  |  |  | 5 (90% or more of herbicidal effect and crop phytotoxicity) | 5 (90% or more of herbicidal effect and crop phytotoxicity) | 5 (90% or more of herbicidal effect and crop phytotoxicity) | 5 (90% or more of herbicidal effect and crop phytotoxicity) | 5 (90% or more of herbicidal effect and crop phytotoxicity) | 5 (90% or more of herbicidal effect and crop phytotoxicity) | 4 (70 to less than 90% of herbicidal effect and crop phytotoxicity) | 5 (90% or more of herbicidal effect and crop phytotoxicity) | 5 (90% or more of herbicidal effect and crop phytotoxicity) | 5 (90% or more of herbicidal effect and crop phytotoxicity) | 4 (70 to less than 90% of herbicidal effect and crop phytotoxicity) |
| O=C(C1=C(O)C2CCC(C2)C1=O)c1ccc(C(F)(F)F)n(-c2ccccc2)c1=O (stereo not shown) [III-34] |  |  |  |  | 5 (90% or more of herbicidal effect and crop phytotoxicity) | 5 (90% or more of herbicidal effect and crop phytotoxicity) | 5 (90% or more of herbicidal effect and crop phytotoxicity) | 5 (90% or more of herbicidal effect and crop phytotoxicity) | 5 (90% or more of herbicidal effect and crop phytotoxicity) | 5 (90% or more of herbicidal effect and crop phytotoxicity) | 5 (90% or more of herbicidal effect and crop phytotoxicity) | 5 (90% or more of herbicidal effect and crop phytotoxicity) | 5 (90% or more of herbicidal effect and crop phytotoxicity) | 5 (90% or more of herbicidal effect and crop phytotoxicity) | 5 (90% or more of herbicidal effect and crop phytotoxicity) |
| CCCS(=O)(=O)Oc1c(C(=O)c2ccc(C(F)(F)F)n(-c3ccc4c(c3)OCO4)c2=O)cnn1C [IV-98] |  |  |  |  | 5 (90% or more of herbicidal effect and crop phytotoxicity) | 5 (90% or more of herbicidal effect and crop phytotoxicity) | 5 (90% or more of herbicidal effect and crop phytotoxicity) | 5 (90% or more of herbicidal effect and crop phytotoxicity) | 3 (50 to less than 70% of herbicidal effect and crop phytotoxicity) | 5 (90% or more of herbicidal effect and crop phytotoxicity) | 5 (90% or more of herbicidal effect and crop phytotoxicity) | 5 (90% or more of herbicidal effect and crop phytotoxicity) | 5 (90% or more of herbicidal effect and crop phytotoxicity) | 5 (90% or more of herbicidal effect and crop phytotoxicity) | 4 (70 to less than 90% of herbicidal effect and crop phytotoxicity) |
| COCCCn1c(C(F)(F)F)ccc(C(=O)c2cnn(C)c2O)c1=O [IV-47] |  |  |  |  | 5 (90% or more of herbicidal effect and crop phytotoxicity) | 5 (90% or more of herbicidal effect and crop phytotoxicity) | 5 (90% or more of herbicidal effect and crop phytotoxicity) | 5 (90% or more of herbicidal effect and crop phytotoxicity) | 4 (70 to less than 90% of herbicidal effect and crop phytotoxicity) | 5 (90% or more of herbicidal effect and crop phytotoxicity) | 5 (90% or more of herbicidal effect and crop phytotoxicity) | 5 (90% or more of herbicidal effect and crop phytotoxicity) | 4 (70 to less than 90% of herbicidal effect and crop phytotoxicity) | 5 (90% or more of herbicidal effect and crop phytotoxicity) | 5 (90% or more of herbicidal effect and crop phytotoxicity) |
